{"source": "patent US7435721B2", "about": "“Transport peptides such as C-terminal Erns peptide and analogues thereof” (Pepscan Systems B.V., priority 2000, dated 2008)", "key": {"[1]": {"system": "live cells in suspension or subconfluent monolayers", "type": "cell-based"}, "human breast skin": {"system": "human breast skin", "settings": "human breast skin in vitro, two hours", "protocol": "(§1) Transdermal transport. The potential of the an E^rns peptide to penetrate the skin was tested by applying 150 μl 0.3-4 mM of biotinylated peptide in a chamber containing an isolated piece of “fresh” human breast skin or in a chamber which was glued on the skin of a live pig, or applying 50 μl of peptide solution on the skin with a cotton wool tip, or applying 50 μl of a peptide solution mixed with 50 μl of contact gel on the skin for 30 minutes to 120 minutes. After the incubation time, the pig was killed, the skin was cleaned and biopsied, and a biopsy was frozen in liquid nitrogen. Cryosections of the skin samples were fixed on microscopic slides with acetone and incubated with streptavidin-FITC ( 1/100) for 30 minutes."}, "skin of a live pig": {"system": "skin of a live pig", "settings": "skin of a pig in vivo", "protocol": "as §1"}, "[2]": {"system": "fixed cells (Ebtr, SK6, sf-21, Caco-2 and HT-29)", "type": "cell-based"}, "guinea pig erythrocytes": {"system": "guinea pig erythrocytes", "assay": "Hemolytic assay, guinea pig erythrocytes", "type": "cell-based", "settings": "1% v/v, one hour at 37° C.", "protocol": "Hemolytic assay. Hemolytic activity of various peptide concentrations was determined by incubation with human, guinea pig or sheep erythrocyte suspensions (final erythrocyte concentration, 1% v/v) for one hour at 37° C. After cooling and centrifugation, the optical density of the supernatants were measured at 540 nm. Peptide concentrations causing 50% hemolysis (EC50) were derived from the dose-response curves."}, "[3]": {"system": "Escherichia coli ATCC 25922", "assay": "Antimicrobial assay (MIC), E. coli", "type": "cell-based", "settings": "overnight at 37° C.", "protocol": "Antimicrobial assay. Two bacterial strains (Escherichia coli ATCC 25922 and Enterococcus faecalis ATCC 29212) were inoculated on heart infusion agar with 5% sheep blood and incubated aerobically overnight at 37° C. From the pure cultures, suspensions were made in saline to a density of 0.5 McFarland. These suspensions were diluted ten-fold in Mueller Hinton II broth, resulting in a final inoculum of approximately 10^7 cfu/ml.\nStandard 96-well microtiter trays were filled with 100 ill of two-fold dilutions of peptide in physiologic salt solution in each well, resulting in the following concentration range: 4000, 2000, 1000, 500, 250, 125, 62.25, 31.63, 15.82, 7.96 and 0 μg/ml. The trays in column 12 were filled with 200 μl MH II broth (negative control).\nColumns 1-11 of the microtiter trays were filled with 100 μl of the final inoculum of the bacterial suspensions, thus diluting the concentrations of the peptide two fold, resulting in the following peptide concentration range in the wells: 2000, 1000, 500, 250, 125, 62.25, 31.63, 15.82, 7.96, 3.98 and 0 μg/ml. In rows B, C and D, 100 μl of the final inoculum of E. coli and, in rows E, F and G, 100 μl of the final inoculum of E. faecalis was pipetted. The final bacterial concentration was approximately 5×10^5 cfu/well. All trays were sealed and incubated overnight at 37° C. After incubation, the microtiter trays were inspected visually for bacterial growth and the absorbance of the cultures at 630 nm (A630) was determined with an ELISA-reader. […] The experiment was performed independently in triplicate. The test was repeated again in triplicate after two days with the final peptide concentration range in the wells: 5000, 2500, 1250, 625, 312.5, 156.25, 78.12, 39.06, 19.58, 9.79, 4.88, 2.44 and 1.22 μg/ml."}}, "note": "Like-named read-outs stand apart in the source and are kept apart here. *: point of attachment. Biotin = O=C1N[C@H]2[C@H](CS[C@H]2CCCCC(=O)*)N1"}
{"compound": "Biotin-GRQLRIAGRRLRGRSR-NH2 [MDK-20]", "values": [{"measurement": "Concentration (translocation activity), optimization of E^rns peptide", "setting": "[1]", "value": 0.1, "unit": "µM"}, {"measurement": "Skin penetration of biotinylated peptide", "setting": "human breast skin", "value": "could be visualized with streptavidin-FITC in the epidermis and the dermis"}, {"measurement": "Skin penetration of biotinylated peptide", "setting": "skin of a live pig", "value": "same results"}, {"measurement": "Time after application at which penetration into the epidermis was observed", "setting": "skin of a live pig", "value": 30, "unit": "min"}]}
{"compound": "$ENARQGAARVTSWLGRQLRIAGKRLEGRSKTWFGAYA# [191-227]", "values": [{"measurement": "Time to optimal fluorescence", "setting": "[1]", "value": 30, "unit": "min"}, {"measurement": "Translocation activity (in words)", "setting": "[1]", "value": "penetrated inside all cell types"}, {"measurement": "Binding to fixed cells", "setting": "[2]", "value": "able to bind to all tested cell types"}, {"measurement": "Peptide concentration that inhibits cell growth", "setting": "HeLa cells", "value": 50, "unit": "µM"}, {"measurement": "Peptide concentration that inhibits cell growth", "setting": "EBTr cells", "value": 50, "unit": "µM"}]}
{"compound": "CC[C@H](C)[C@H](NC(=O)[C@H](CCCNC(=N)N)NC(=O)[C@H](CC(C)C)NC(=O)[C@H](CCC(N)=O)NC(=O)[C@H](CCCNC(=N)N)NC(=O)CNC(=O)[C@H](CC(C)C)NC(=O)[C@H](Cc1c[nH]c2ccccc12)NC(=O)[C@H](CO)NC(=O)[C@@H](NC(=O)[C@@H](NC(=O)[C@H](CCCNC(=N)N)NC(=O)[C@H](C)NC(=O)[C@H](C)NC(=O)CNC(=O)[C@H](CCC(N)=O)NC(=O)[C@H](CCCNC(=N)N)NC(=O)CCCC[C@@H]1SC[C@@H]2NC(=O)N[C@@H]21)C(C)C)[C@@H](C)O)C(=O)N[C@@H](C)C(=O)NCC(=O)N[C@@H](CCCCN)C(=O)N[C@@H](CCCNC(=N)N)C(=O)N[C@@H](CC(C)C)C(=O)N[C@@H](CCC(=O)O)C(=O)NCC(=O)N[C@@H](CCCNC(=N)N)C(=O)N[C@@H](CO)C(=O)N[C@@H](CCCCN)C(N)=O", "note": "[194-220]", "values": [{"measurement": "Concentration at which biotinylated peptide was still (faintly) detectable", "setting": "[1]", "value": 125, "unit": "nM"}, {"measurement": "Concentration (translocation activity), optimization of E^rns peptide", "setting": "[1]; Table 9, lower concentration = higher translocation activity", "value": 1.0, "unit": "µM"}, {"measurement": "Hemolysis (peptide concentration causing 50% hemolysis)", "setting": "guinea pig erythrocytes", "value": 0.26, "unit": "mg/mL"}, {"measurement": "MIC (minimal inhibitory concentration needed to inhibit bacterial growth)", "setting": "[3]", "value": 50, "unit": "µg/mL"}, {"measurement": "Peptide concentration that inhibits cell growth", "setting": "HeLa cells; HeLa, 75 minutes incubation, growth checked after 3 to 6 days", "value": 40, "unit": "µM"}, {"measurement": "Peptide concentration that inhibits cell growth", "setting": "EBTr cells; EBTr, 75 minutes incubation, growth checked after 3 to 6 days", "value": 60, "unit": "µM"}]}
